Laboratory results taken from patent publication US20110224300A1, “USE OF POTASSIUM 2-(a- HYDROXYPENTYL) BENZOATE IN THE MANUFACTURE OF MEDICAMENTS FOR PREVENTING AND/OR TREATING SENILE [sequence]” (Institute of Mataria Medica, Chinese Academy of Me, priority 2008, published 2011).
Marks after values point to notes of the source that are not given here.

Columns and labels:
Format in all cases: in vivo, rat
[1] = test system: ChAT; assay: ChAT activity of brain tissues from permanent 2-VO rats; details: for activity of ChAT in hippocampus: 21 days
Description: (§1) In 10 days after onset of 2-VO, drugs and vehicle were administered orally to rats for 21 days (one time/each day). The spatial learning and memory capability of rats were detected by Morris water maze in the 25-30 days after operation. The Morris water test was commenced at 40 min after drugs treated. The biochemical and pathology assays were conducted later (in 24 h) after behavioral tests.
The biochemical assays were conducted later (in 24 h) after behavioral testing. Eight rats in each group were anesthetized with ether and sacrificed. The brains were quickly removed and cleaned with ice-cold saline. Then the parietal cortex and hippocampus were isolated. For biochemical analysis, the tissues were weighed and homogenized in ice-cold saline with the proportion of 1:9 (w/v). Homogenization (IKA, Germany) was carried out for 2 min in an ice bath. After the homogenates were centrifuged at 2,000×g for 10 min at 4° C. (Sigma, Germany), the supernatant was used for analytical procedures. The levels of choline acetyltransferase (ChAT) SOD, and MDA activities were determined with commercial colorimetric assay kits (Nanjing Jiancheng Bioengineering Institute, China). The content of protein in the supernatant was determined by Bradford method using BSA as standard.

[2] = test system: cortex and hippocampus neurons of 2-VO rats; assay: HE staining, neuronal morphology in 2-VO rats; details: 21 days
Description: Four rats in each group were anesthetized with sodium pentobarbital (100 mg/kg, intraperitoneal injection), and perfused transcardially with cold saline, followed by 300 ml of 4% paraformaldehyde in 0.01 M phosphate buffer (pH 7.4). After these procedures, the brains were removed and stored in the 0.01 M phosphate buffer (pH 7.4) with 4% paraformaldehyde and 30% sucrose at 4° C. until fully equilibrated. Then they were postfixed at 4° C., dehydrated and embedded in paraffin blocks. Coronal sections of 8 μm were stained with hematoxylin-eosin and Klüver-Barrera.
HE staining in the cytoplasm and nucleus in different colors, you can clearly see the general shape of the cells. […] Above that, dl-PHPB could protect and care the damage of cortex and hippocampus neurons caused by chronic cerebral hypoperfusion.

[3] = test system: permanent 2-VO rats (chronic cerebral hypoperfusion); assay: Morris water maze in permanent 2-VO (BCCAO) rats; details: for probe trial: time in the platform quadrant and time to cross the platform location / escape latency in the water maze task: 2-VO rats; for probe trial: time in the platform quadrant and time to cross the platform location: compared to 2-VO animals; for escape latency in the water maze task: vs vehicle
Excerpt: Chronic cerebral hypoperfusion was proceeded by a permanent, bilateral occlusion of the common carotid arteries (2-VO) of adult rats. The rats were anesthetized with 10% trichloro-acetaldehyde, and temperature probe was inserted into the rectum, and a separate heating lamp was used to maintain rectal temperature at normothermic level. After a midline neck skin incision, the common carotid artery were exposed and ligated by a 5-0 nylon suture.
as §1, with “Rats were randomly divided into six experimental groups (20 rats/each group): one sham-operated group, one vehicle control group, one piracetam-treated group (600 mg/kg), and three dl-PHPB-treated groups (13, 39, and 129 mg/kg). In” for “In”
Subjects were tested in a Morris water maze. This test is based on a standardized assessment of spatial learning ability. The water maze apparatus consisted of a circular, stainless pool (120 cm in diameter, 60 cm in height). It was placed in a dimly lit, sound-proof test room. Multiple distant cues around the room (window, cabinets, furniture) were kept in the same location throughout the experiments. The water was filled to a depth of 40 cm at 25±1° C. and was made opaque by adding milk powder to prevent visualization of the platform. A transparent platform (10 cm diameter) was put 1.5 cm below the surface of the water. The tank was divided into four quadrants with the platform in a fixed position in one quadrant. The subjects were placed into the maze facing the pool wall and were allowed two trials per day, 60 s per trial, to find the hidden platform. If the subject found the platform within the 60 s, it was given a 10-s rest period on the platform between trials. If the pedestal was not located within the time allotted, the subject was placed on to the platform and allowed 10 s until the next trial. The escape latency (time to reach the platform) was used to assess acquisition of the water maze task. Sessions were repeated for five consecutive days. On the sixth day, the platform was removed and the rat was allowed to search for the platform for 60 s (probe test). The time in the platform quadrant and latency time to cross platform location were recorded to measure the spatial learning ability without the influence of chance encounters with the platform. The Morris water maze sessions were recorded with a video camera for offline analysis.

[4] = dl-PHPB 13 mg/kg, 1st of 5 M/R/T/L column groups (day not printed)
[5] = dl-PHPB 13 mg/kg, 2nd of 5 M/R/T/L column groups (day not printed)
[6] = dl-PHPB 13 mg/kg, 3rd of 5 M/R/T/L column groups (day not printed)
[7] = dl-PHPB 13 mg/kg, 4th of 5 M/R/T/L column groups (day not printed)
[8] = dl-PHPB 13 mg/kg, 5th of 5 M/R/T/L column groups (day not printed)
[9] = dl-PHPB 39 mg/kg, 1st of 5 M/R/T/L column groups (day not printed)
[10] = dl-PHPB 39 mg/kg, 2nd of 5 M/R/T/L column groups (day not printed)
[11] = dl-PHPB 39 mg/kg, 3rd of 5 M/R/T/L column groups (day not printed)
[12] = dl-PHPB 39 mg/kg, 4th of 5 M/R/T/L column groups (day not printed)
[13] = dl-PHPB 39 mg/kg, 5th of 5 M/R/T/L column groups (day not printed)
[14] = dl-PHPB 129 mg/kg, 1st of 5 M/R/T/L column groups (day not printed)
[15] = dl-PHPB 129 mg/kg, 2nd of 5 M/R/T/L column groups (day not printed)
[16] = dl-PHPB 129 mg/kg, 3rd of 5 M/R/T/L column groups (day not printed)
[17] = dl-PHPB 129 mg/kg, 4th of 5 M/R/T/L column groups (day not printed)
[18] = dl-PHPB 129 mg/kg, 5th of 5 M/R/T/L column groups (day not printed)

## CCCCC(O)c1ccccc1C(=O)[O-].[K+] (racemic) [dl-PHPB, Potassium 2-(1-Hydroxypentyl)-benzoate]
[1]; cortex, data not shown
  ChAT activity in cortex: had no effect
[1]; dl-PHPB 13 mg/kg
  activity of ChAT in hippocampus: did not show significant effects
[1]; dl-PHPB 39 mg/kg
  activity of ChAT in hippocampus: did not show significant effects
[1]; dl-PHPB 129 mg/kg, P<0.05
  activity of ChAT in hippocampus: significantly increased the activity of ChAT
[2]; dl-PHPB 13 mg/kg
  neuronal morphology, HE staining: only minor improve the abnormal shape of cortical neurons
[2]; dl-PHPB 39 mg/kg
  neuronal morphology, HE staining: significantly improve the cortex, hippocampus area CA1 and CA3 neurons form
[2]; dl-PHPB 129 mg/kg
  neuronal morphology, HE staining: improve the cortex and hippocampus CA1 area neuronal morphologic abnormalities
[3]; 13 mg/kg orally 21 days
  probe trial: time in the platform quadrant and time to cross the platform location: markedly showed ameliorative effect
[3]; 13 mg/kg orally daily for 21 days
  escape latency in the water maze task: did not differ from the vehicle control animals
[3]; 39 mg/kg orally 21 days
  probe trial: time in the platform quadrant and time to cross the platform location: markedly showed ameliorative effect
[3]; 39 mg/kg orally daily for 21 days
  escape latency in the water maze task: significantly rescued learning impairment
[3]; 129 mg/kg orally daily for 21 days
  escape latency in the water maze task: significantly rescued learning impairment
[3]; [4]
  search strategy times, linear mode (L): 1
  search strategy times, marginal mode (M): 11
  search strategy times, random mode (R): 13
  search strategy times, tendency mode (T): 11
[3]; [5]
  search strategy times, linear mode (L): 6
  search strategy times, marginal mode (M): 3
  search strategy times, random mode (R): 11
  search strategy times, tendency mode (T): 16
[3]; [6]
  search strategy times, linear mode (L): 5
  search strategy times, marginal mode (M): 0
  search strategy times, random mode (R): 10
  search strategy times, tendency mode (T): 21
[3]; [7]
  search strategy times, linear mode (L): 7
  search strategy times, marginal mode (M): 0
  search strategy times, random mode (R): 9
  search strategy times, tendency mode (T): 20
[3]; [8]
  search strategy times, linear mode (L): 4
  search strategy times, marginal mode (M): 0
  search strategy times, random mode (R): 5
  search strategy times, tendency mode (T): 26
[3]; [9]
  search strategy times, linear mode (L): 2
  search strategy times, marginal mode (M): 7
  search strategy times, random mode (R): 15
  search strategy times, tendency mode (T): 12
[3]; [10]
  search strategy times, linear mode (L): 4
  search strategy times, marginal mode (M): 3
  search strategy times, random mode (R): 9
  search strategy times, tendency mode (T): 18
[3]; [11]
  search strategy times, linear mode (L): 3
  search strategy times, marginal mode (M): 1
  search strategy times, random mode (R): 13
  search strategy times, tendency mode (T): 17
[3]; [12]
  search strategy times, linear mode (L): 9
  search strategy times, marginal mode (M): 0
  search strategy times, random mode (R): 7
  search strategy times, tendency mode (T): 18
[3]; [13]
  search strategy times, linear mode (L): 17*
  search strategy times, marginal mode (M): 0
  search strategy times, random mode (R): 4
  search strategy times, tendency mode (T): 13
[3]; [14]
  search strategy times, linear mode (L): 4
  search strategy times, marginal mode (M): 4
  search strategy times, random mode (R): 16
  search strategy times, tendency mode (T): 10
[3]; [15]
  search strategy times, linear mode (L): 1
  search strategy times, marginal mode (M): 2
  search strategy times, random mode (R): 12
  search strategy times, tendency mode (T): 19
[3]; [16]
  search strategy times, linear mode (L): 6
  search strategy times, marginal mode (M): 0
  search strategy times, random mode (R): 7
  search strategy times, tendency mode (T): 21
[3]; [17]
  search strategy times, linear mode (L): 7
  search strategy times, marginal mode (M): 1
  search strategy times, random mode (R): 5
  search strategy times, tendency mode (T): 20
[3]; [18]
  search strategy times, linear mode (L): 9
  search strategy times, marginal mode (M): 0
  search strategy times, random mode (R): 2
  search strategy times, tendency mode (T): 23
